Data from the NIST ThermoML archive (doi:10.1016/j.fluid.2010.08.022).

Settings: 101.33 kPa, Liquid crystal of unknown type; for mass density: Vibrating tube method; for speed of sound: Sing-around technique in a fixed-path interferometer

CCCCCCCC/C=C\CCCCCCCC(=O)O.NCCO [2-hydroxyethylammonium oleate]
Settings	mass density [kg/m3]	speed of sound [m/s]
310.91 K	928.395	–
311.16 K	928.237	1466.6
311.41 K	928.077	1465.8
311.66 K	927.918	1465
311.91 K	927.76	1464.2
312.16 K	927.599	1463.4
312.41 K	927.441	1462.6
312.66 K	927.283	1461.8
312.91 K	927.122	1461
313.16 K	926.962	1460.2
313.41 K	926.805	1459.4
313.66 K	926.647	1458.6
313.91 K	926.486	1457.8
314.16 K	926.328	1457
314.41 K	926.167	1456.2
314.66 K	926.009	1455.4
314.91 K	925.851	1454.6
315.16 K	925.69	1453.8
315.41 K	925.531	1453
315.66 K	925.372	1452.2
315.91 K	925.214	1451.4
316.16 K	925.054	1450.6
316.41 K	924.895	1449.8
316.66 K	924.735	1449
316.91 K	924.575	1448.2
317.16 K	924.416	1447.4
317.41 K	924.257	1446.6
317.66 K	924.098	1445.8
317.91 K	923.938	1445
318.16 K	923.779	1444.2
318.4 K	923.621	1443.4
318.66 K	923.461	1442.6
318.91 K	923.302	1441.8
319.16 K	923.142	1441
319.41 K	922.982	1440.2
319.65 K	922.821	1439.4
319.91 K	922.663	1438.6
320.16 K	922.502	1437.8
320.41 K	922.343	1437
320.66 K	922.184	1436.2
320.91 K	922.026	1435.5
321.16 K	921.864	1434.7
321.41 K	921.705	1433.9
321.66 K	921.546	1433.1
321.91 K	921.386	1432.3
322.15 K	921.225	1431.5
322.41 K	921.066	1430.8
322.66 K	920.906	1430
322.91 K	920.746	1429.2
323.16 K	920.588	1428.4
323.41 K	920.427	1427.6
323.66 K	920.268	1426.8
323.91 K	920.108	1426
324.16 K	919.948	1425.3
324.41 K	919.788	1424.5
324.66 K	919.629	1423.7
324.91 K	919.469	1422.9
325.16 K	919.309	1422.1
325.41 K	919.149	1421.3
325.66 K	918.989	1420.5
325.91 K	918.828	1419.7
326.16 K	918.669	1419
326.41 K	918.508	1418.2
326.66 K	918.347	1417.4
326.91 K	918.187	1416.6
327.16 K	918.029	1415.8
327.41 K	–	1415.1
